Results: US10273218B2, “BCL-3 inhibitors” (University College Cardiff Consultants Limited, priority 2014, dated 2019)

| SMILES | melting point [°C] |
| --- | --- |
| COc1cc(C(=O)NCCCN2CCOCC2)c(NC(=O)c2cccnc2)c(OC)c1OC [Compound 132, N-(2,3,4-trimethoxy-6-((3-morpholinopropyl)carbamoyl)phenyl) nicotinamide] | 120 to 122 |
| O=C(Nc1ccccc1C(=O)NCCCc1ccccc1)c1ccc2ccccc2c1 [Compound 98, N-(2-((3-phenylpropyl)carbamoyl)phenyl)-2-naphthamide] | 99 to 101 |
| CN1CCN(CCNC(=O)c2ccccc2NC(=O)c2ccccc2C(F)(F)F)CC1 [Compound 117] | 124 to 126 |
| O=C(Nc1ccccc1C(=O)NCCN1CCOCC1)c1cccnc1 [Compound 32, N-(2-((2-morpholinoethyl)carbamoyl)phenyl)nicotinamide] | 85 |
| CN1CCN(CCCNC(=O)c2ccccc2NC(=O)c2cccc3ccccc23)CC1 [Compound 68, N-(2-((3-(4-methylpiperazin-1-yl)propyl)carbamoyl)phenyl)-1-naphthamide] | 98 to 100 |
| COc1cccc(C(=O)NCCc2ccccc2)c1NC(=O)c1cccc(F)c1 [Compound 85, 2-(3-fluorobenzamido)-3-methoxy-N-phenethylbenzamide] | 99 to 101 |
| COc1cccc(C(=O)NCCN2CCOCC2)c1NC(=O)c1ccccc1F [Compound 145, 2-(2-fluorobenzamido)-3-methoxy-N-(2-morpholinoethyl)benzamide] | 105 to 107 |
| O=C(Nc1ncccc1C(=O)O)c1ccccc1F [Compound 105, 2-(2-fluorobenzamido)nicotinic acid] | > 90 |
| CN1CCN(CCNC(=O)c2ccccc2NC(=O)c2cccc(C(F)(F)F)c2)CC1 [Compound 114, N-(2-(4-methylpiperazin-1-yl)ethyl)-2-(3-(trifluoromethyl)benzamido) benzamide] | 101 to 103 |
| O=C(Nc1ccccc1C(=O)NCCCc1ccccc1)c1ccccc1F [Compound 95, 2-fluoro-N-(2-((3-phenylpropyl)carbamoyl)phenyl)benzamide] | 61 to 63 |
| CN1CCN(CCNC(=O)c2ccccc2NC(=O)c2cccc(F)c2)CC1 [Compound 50, 2-(3-fluorobenzamido)-N-(2-(4-methylpiperazin-1-yl)ethyl) benzamide] | 81 |
| COc1cccc(C(=O)Nc2cccc(F)c2C(=O)NCCN2CCN(C)CC2)c1 [Compound 110, 2-fluoro-6-(3-methoxybenzamido)-N-(2-(4-methylpiperazin-1-yl)ethyl)benzamide] | 108 to 110 |
| O=C(Nc1cc(F)ccc1C(=O)NCCN1CCOCC1)c1ccccc1F [Compound 14, 4-fluoro-2-(2-fluorobenzamido)-N-(2-morpholinoethyl) benzamide] | 104 to 106 |
| CN1CCN(CCNC(=O)c2ccccc2NC(=O)c2ccc(F)cc2F)CC1 [Compound 57, 2,4-difluoro-N-(2-((2-(4-methylpiperazin-1-yl)ethyl)carbamoyl)phenyl)benzamide] | 121 to 122 |
| COc1ccc(C(=O)Nc2ccncc2C(=O)NCCN2CCN(C)CC2)cc1 [Compound 116, 4-(4-methoxybenzamido)-N-(2-(4-methylpiperazin-1-yl)ethyl)nicotinamide] | 83 to 85 |
| COc1cc(NC(=O)c2cccnc2)c(C(=O)NCCN2CCN(C)CC2)c(OC)c1OC [Compound 65, N-(3,4,5-trimethoxy-2-((2-(4-methylpiperazin-1-yl)ethyl)carbamoyl)phenyl)nicotinamide] | 143 |
| O=C(Nc1ccccc1C(=O)NCCN1CCNCC1)c1ccc(F)cc1F [Compound 45, 2,4-difluoro-N-(2-((2-(piperazin-1-yl)ethyl)carbamoyl)phenyl) benzamide] | 84 |
| O=C(NCCCN1CCOCC1)c1ccccc1NC(=O)c1cccc2ccccc12 [Compound 36, N-(2-((3-morpholinopropyl)carbamoyl)phenyl)-1-naphthamide] | 110 to 112 |
| O=C(NCCN1CCOCC1)c1ccccc1NC(=O)c1ccccc1[N+](=O)[O-] [Compound 147, N-(2-morpholinoethyl)-2-(2-nitrobenzamido)benzamide] | 138 to 140 |
| CN1CCN(CCNC(=O)c2ccccc2NC(=O)c2cc(F)cc(F)c2)CC1 [Compound 56, 3,5-difluoro-N-(2-((2-(4-methylpiperazin-1-yl)ethyl)carbamoyl)phenyl)benzamide] | 111 |
| O=C(Nc1ccccc1C(=O)NCCN1CCOCC1)c1ccc([N+](=O)[O-])cc1 [Compound 148, N-(2-morpholinoethyl)-2-(4-nitrobenzamido)benzamide] | 147 to 149 |
| O=C(Nc1ccccc1C(=O)NCCCN1CCOCC1)c1ccc2ccccc2c1 [Compound 37, N-(2-((3-morpholinopropyl)carbamoyl)phenyl)-2-naphthamide] | 103 to 105 |
| COc1ccc(C(=O)Nc2ccccc2C(=O)NCCCN2CCOCC2)cc1 [Compound 35, 2-(4-methoxybenzamido)-N-(3-morpholinopropyl)benzamide] | 112 to 114 |

| SMILES | melting point [°C] |
| --- | --- |
| COc1ccc(C(=O)Nc2ccccc2C(=O)NCCN2CCN(C)CC2)cc1 [Compound 54, 2-(4-methoxybenzamido)-N-(2-(4-methylpiperazin-1-yl)ethyl) benzamide] | 114 |
| COc1ccc(C(=O)Nc2ccccc2C(=O)NCCN2CCN(C)CC2)c(F)c1 [Compound 58, 2-fluoro-4-methoxy-N-(2-((2-(4-methylpiperazin-1-yl)ethyl)carbamoyl)phenyl)benzamide] | 110 to 112 |
| COc1cccc(C(=O)Nc2ccccc2C(=O)NCCN2CCN(C)CC2)c1 [Compound 101, 2-(3-methoxybenzamido)-N-(2-(4-methylpiperazin-1-yl)ethyl)benzamide] | 113 to 115 |
| CN1CCN(CCNC(=O)c2ccccc2NC(=O)c2ccc(F)cc2)CC1 [Compound 107, 2-(4-fluorobenzamido)-N-(2-(4-methylpiperazin-1-yl)ethyl)benzamide] | 89 to 91 |
| COc1ccccc1C(=O)Nc1c(OC)cccc1C(=O)NCCN1CCOCC1 [Compound 25, 3-methoxy-2-(2-methoxybenzamido)-N-(2-morpholinoethyl) benzamide] | 105 to 107 |
| COc1cccc(C(=O)NCCc2ccccc2)c1NC(=O)c1ccc2ccccc2c1 [Compound 119, N-(2-methoxy-6-(phenethylcarbamoyl)phenyl)-2-naphthamide] | 188 to 190 |
| COc1ccc(C(=O)Nc2cccc(F)c2C(=O)NCCN2CCN(C)CC2)cc1 [Compound 109, 2-fluoro-6-(4-methoxybenzamido)-N-(2-(4-methylpiperazin-1-yl)ethyl)benzamide] | 81 to 83 |
| CN1CCN(CCNC(=O)c2ccccc2NC(=O)c2ccccc2)CC1 [Compound 47, 2-benzamido-N-(2-(4-methylpiperazin-1-yl)ethyl)benzamide] | 80 |
| CN1CCN(CCNC(=O)c2ccccc2NC(=O)c2ccc(OC(F)(F)F)cc2F)CC1 [Compound 115, 2-fluoro-N-(2-((2-(4-methylpiperazin-1-yl)ethyl)carbamoyl)phenyl)-4-(trifluoromethoxy)benzamide] | 69 to 71 |
| COc1cc(C(=O)NCCCc2ccccc2)c(NC(=O)c2ccccc2F)c(OC)c1OC [Compound 124, 2-(2-fluorobenzamido)-3,4,5-trimethoxy-N-(3-phenylpropyl)benzamide] | 145 to 147 |
| COc1cccc(C(=O)Nc2c(OC)cccc2C(=O)NCCc2ccccc2)c1 [Compound 91, 3-methoxy-2-(3-methoxybenzamido)-N-phenethylbenzamide] | 100 to 102 |
| O=C(Nc1cccc(F)c1C(=O)NCCN1CCOCC1)c1ccccc1F [Compound 13, 2-fluoro-6-(2-fluorobenzamido)-N-(2-morpholinoethyl) benzamide] | 88 to 90 |
| COc1cc(NC(=O)c2cccnc2)c(C(=O)NCCN2CCOCC2)c(OC)c1OC [Compound 33, N-(3,4,5-trimethoxy-2-((2-morpholinoethyl)carbamoyl)phenyl) nicotinamide] | 155 |
| COc1cc(NC(=O)c2ccccc2F)c(C(=O)NCCN2CCN(C)CC2)cc1OC [Compound 59, 2-(2-fluorobenzamido)-4,5-dimethoxy-N-(2-(4-methylpiperazin-1-yl)ethyl)benzamide] | 60 |
| COc1cccc(C(=O)Nc2c(OC)cccc2C(=O)NCCN2CCOCC2)c1 [Compound 26, 3-methoxy-2-(3-methoxybenzamido)-N-(2-morpholinoethyl) benzamide] | 110 to 113 |
| COc1ccccc1C(=O)Nc1ccccc1C(=O)NCCN1CCN(C)CC1 [Compound 53, 2-methoxy-N-(2-((2-(4-methylpiperazin-1-yl)ethyl)carbamoyl)phenyl)benzamide] | 111 |
| COc1ccc(C(=O)Nc2c(OC)cccc2C(=O)NCCN2CCOCC2)c(OC)c1 [Compound 29, 2-(2,4-dimethoxybenzamido)-3-methoxy-N-(2-morpholinoethyl) benzamide] | 103 to 106 |
| O=C(Nc1ccccc1C(=O)NCCCN1CCOCC1)c1ccccc1F [Compound 34, 2-fluoro-N-(2-((3-morpholinopropyl)carbamoyl)phenyl) benzamide] | 76 to 79 |
| COc1ccc(C(=O)Nc2ccccc2C(=O)NCCCc2ccccc2)cc1 [Compound 96, 2-(4-methoxybenzamido)-N-(3-phenylpropyl)benzamide] | 93 to 94 |
| COc1cccc(C(=O)NCCN2CCOCC2)c1NC(=O)c1ccc(F)cc1 [Compound 18, 2-(4-fluorobenzamido)-3-methoxy-N-(2-morpholinoethyl) benzamide] | 148 to 151 |
| O=C(Nc1cccc(F)c1C(=O)NCCc1ccccc1)c1ccccc1F [Compound 81, 2-fluoro-6-(2-fluorobenzamido)-N-phenethylbenzamide] | 96 to 98 |
| O=C(Nc1ccccc1C(=O)NCCN1CCNCC1)c1cccc(Cl)c1 [Compound 102, 2-(3-chlorobenzamido)-N-(2-(piperazin-1-yl)ethyl)benzamide] | 59 to 61 |
